pEC50, pIC50: −log10 of the molar value.
How the values were obtained:
[1] = molecular target: T1, USP30 (Homo sapiens, UniProt Q70CQ3); experiment: USP30 biochemical IC50 assay (fluorescence polarisation); details: USP30 biochemical IC50 assay, exemplary compounds; read-out: IC50
T1 construct: purchased Boston Biochem E582
T1 sequence (Q70CQ3 57-517 limits assumed): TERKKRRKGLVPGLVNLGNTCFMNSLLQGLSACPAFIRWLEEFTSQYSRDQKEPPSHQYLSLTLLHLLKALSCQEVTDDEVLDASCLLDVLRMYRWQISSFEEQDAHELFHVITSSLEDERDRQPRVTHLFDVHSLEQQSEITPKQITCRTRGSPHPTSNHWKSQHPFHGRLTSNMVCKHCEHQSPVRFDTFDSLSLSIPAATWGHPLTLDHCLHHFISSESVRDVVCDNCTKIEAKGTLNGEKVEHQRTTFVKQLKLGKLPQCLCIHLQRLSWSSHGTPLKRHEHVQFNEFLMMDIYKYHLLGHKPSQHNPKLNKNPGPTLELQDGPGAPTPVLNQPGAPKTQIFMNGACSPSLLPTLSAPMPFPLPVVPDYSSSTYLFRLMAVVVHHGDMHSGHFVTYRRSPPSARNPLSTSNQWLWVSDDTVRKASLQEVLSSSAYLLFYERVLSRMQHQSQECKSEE
Procedure: Dilution plates were prepared at 21 times the final concentration (2100 μM for a final concentration of 100 μM) in 50% DMSO in a 96-well polypropylene V-bottom plate (Greiner #651201). A typical 8-point dilution series would be 100, 30, 10, 3, 1, 0.3, 0.1, 0.03 μM final. Reactions were performed in duplicate in black 384 well plates (small volume, Greiner 784076) in a final reaction volume of 21 μl. Either […] of 50% DMSO or diluted compound was added to the plate. USP30 (Boston Biochem #E582) was diluted in reaction buffer (40 mM Tris, pH 7.5, 0.005% Tween 20, 0.5 mg/ml BSA, 5 mM beta-mercaptoethanol) to achieve a final assay concentration of 4 nM, and 10 μl of diluted USP30 was added to the compound. Enzyme and compound were incubated for 30 min at room temp. Reactions were initiated by the addition of 50 nM of TAMRA labelled peptide linked to ubiquitin via an iso-peptide bond as fluorescence polarisation substrate. Reactions were read immediately after addition of substrate and following a 2-hour incubation at room temperature. Readings were performed on a Pherastar Plus (BMG Labtech). λ Excitation 540 nm; λ Emission 590 nm.

[2] = molecular target: T2, UCHL1 (Homo sapiens, UniProt P09936); experiment: DUB biochemical IC50 assay, UCHL1
T2 sequence (P09936 1-223): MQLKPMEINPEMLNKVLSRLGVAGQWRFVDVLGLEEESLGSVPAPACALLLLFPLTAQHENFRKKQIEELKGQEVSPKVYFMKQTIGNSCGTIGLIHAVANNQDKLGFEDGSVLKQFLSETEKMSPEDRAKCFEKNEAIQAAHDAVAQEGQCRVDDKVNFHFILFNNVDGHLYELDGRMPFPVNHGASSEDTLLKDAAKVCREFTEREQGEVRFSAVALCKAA

[3] = test system: USP2, USP10, USP16, USP21, USP22, USP25, USP28, USP35, USP46; experiment: DUB biochemical IC50 assays, nine DUBs; details: range over the nine DUBs
[4] = molecular target: Cathepsin B (Homo sapiens, UniProt P07858); experiment: Cathepsin IC50, cathepsin B; type: biochemical
[5] = molecular target: T3, Cathepsin K (Homo sapiens, UniProt P43235); experiment: Cathepsin IC50, cathepsin K; type: biochemical
T3 sequence (P43235 115-329): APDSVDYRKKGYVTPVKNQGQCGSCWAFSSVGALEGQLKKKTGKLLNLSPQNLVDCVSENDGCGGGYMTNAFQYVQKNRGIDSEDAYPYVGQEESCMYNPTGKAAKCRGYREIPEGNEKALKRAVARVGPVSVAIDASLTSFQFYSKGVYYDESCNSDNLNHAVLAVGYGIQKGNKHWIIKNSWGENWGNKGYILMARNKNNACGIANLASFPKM

[6] = molecular target: Cathepsin L (Homo sapiens, UniProt P07711); experiment: Cathepsin IC50, cathepsin L; type: biochemical
Cathepsin L, sequence (P07711 114-333, species assumed): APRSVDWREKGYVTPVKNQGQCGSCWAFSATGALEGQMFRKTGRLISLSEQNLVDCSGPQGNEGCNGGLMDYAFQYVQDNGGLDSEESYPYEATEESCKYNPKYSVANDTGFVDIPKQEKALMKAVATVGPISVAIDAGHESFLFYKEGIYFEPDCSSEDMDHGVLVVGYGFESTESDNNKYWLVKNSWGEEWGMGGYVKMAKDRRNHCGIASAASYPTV

[7] = molecular target: Cathepsin S (Homo sapiens, UniProt P25774); experiment: Cathepsin IC50, cathepsin S; type: biochemical
Cathepsin S, sequence (P25774 115-331, species assumed): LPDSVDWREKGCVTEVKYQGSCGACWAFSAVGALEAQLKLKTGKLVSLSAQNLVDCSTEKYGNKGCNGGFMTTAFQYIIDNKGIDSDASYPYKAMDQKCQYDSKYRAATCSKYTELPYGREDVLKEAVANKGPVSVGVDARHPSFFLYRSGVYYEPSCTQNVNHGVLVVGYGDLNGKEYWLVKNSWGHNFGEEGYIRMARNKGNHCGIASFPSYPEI

[8] = molecular target: Cathepsin V (Homo sapiens, UniProt O60911); experiment: Cathepsin IC50, cathepsin V; type: biochemical
Cathepsin V, sequence (O60911 114-334, species assumed): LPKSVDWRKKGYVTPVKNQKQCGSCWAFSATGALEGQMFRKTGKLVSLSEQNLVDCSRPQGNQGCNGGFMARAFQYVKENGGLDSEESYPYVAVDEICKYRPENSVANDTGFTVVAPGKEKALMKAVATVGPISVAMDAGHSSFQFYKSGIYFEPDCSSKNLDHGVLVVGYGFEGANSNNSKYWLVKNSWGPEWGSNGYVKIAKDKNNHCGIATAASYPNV

[9] = test system: Cathepsins B, K, L, S, V; experiment: Cathepsin IC50, range over B, K, L, S, V; type: biochemical
[10] = test system: HCT116 human colorectal carcinoma cells; experiment: In vitro cytotoxicity (Cell Tox), alamarBlue; type: cell-based
Excerpt: There is also a need for compounds that have a favourable safety profile, which may be measured by a variety of standard in vitro and in vivo methods. A cell toxicity counter-screen may be used to assay the anti-proliferative/cytotoxic effect in a particular cell line (e.g. HCT116) by fluorometric detection of rezasurin (alamarBlue) to resofurin in response to mitochondrial activity.
In Vitro Cytotoxicity (Cell Tox): Measured in HCT116 human colorectal carcinoma cells using alamarBlue as the assay endpoint. Compound cytotoxicity was measured over a period of 96-hour continual compound exposure.

[11] = molecular target: T4, Endogenous USP30 (Homo sapiens, UniProt Q70CQ3); experiment: USP30 endogenous cellular target engagement western blot assay (Cell TE WB); type: cell-based; details: Hela cells stably overexpressing YFP-Parkin, 1 hour
T4 construct: USP30 endogenous cellular target engagement western blot (WB) assay; endogenous in cells; host or cells: HeLa stably overexpressing YFP-Parkin
T4 sequence (Q70CQ3 1-517): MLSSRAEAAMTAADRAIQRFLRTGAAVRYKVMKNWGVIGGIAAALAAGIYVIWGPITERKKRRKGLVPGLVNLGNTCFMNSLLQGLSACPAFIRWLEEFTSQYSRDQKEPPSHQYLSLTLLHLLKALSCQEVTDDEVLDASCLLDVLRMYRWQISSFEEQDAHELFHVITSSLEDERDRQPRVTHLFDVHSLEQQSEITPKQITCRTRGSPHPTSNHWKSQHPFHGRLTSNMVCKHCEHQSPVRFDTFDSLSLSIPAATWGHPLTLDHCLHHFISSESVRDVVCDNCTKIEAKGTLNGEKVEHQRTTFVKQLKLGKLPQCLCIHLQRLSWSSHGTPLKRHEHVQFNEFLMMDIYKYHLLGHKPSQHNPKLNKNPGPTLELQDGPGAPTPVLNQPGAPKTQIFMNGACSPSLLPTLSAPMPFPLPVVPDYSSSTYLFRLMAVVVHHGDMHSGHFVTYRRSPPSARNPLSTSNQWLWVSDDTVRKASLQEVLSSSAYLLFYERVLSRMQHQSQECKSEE
Procedure: Hela cells stably overexpressing YFP-Parkin were seeded into 6 well dishes. Once adhered, cells were treated with appropriate concentrations of test compounds or vehicle control for 1 hour at 37° C., 5% CO2. Whole cell lysates were prepared by scraping the cells into cold PBS, centrifuging and lysing in lysis buffer (50 mM Tris-base, pH 7.5, 50 mM NaCl, 1% NP-40/Igepal CA-630, 2 mM MgCl2, 10% Glycerol, 5 mM beta-mercaptoethanol, cOmplete mini tablets EDTA free (Roche), PhosStop tablets (Roche)) for 10 mins. The equivalent of 20 μg of protein from the cleared cell lysate was incubated with a final conc of 2.5 μM HA-Ahx-Ahx-Ub-VME probe at room temperature. The reaction was stopped by addition of 5×SDS sample loading buffer and proteins separated by SDS PAGE and western blotting. USP30 was detected using an anti-USP30 Sheep S746D antibody (MRC PPU Reagents and Services) and a rabbit anti sheep secondary IgG (H+L) horseradish peroxidase conjugated (Thermo #31480) and visualised using ECL reagent (GE #RPN2109) on a GE LAS4000 imager. Target engagement was measured by quantitation of the bands corresponding to USP30 and USP30 bound to the Ub-VME probe and expression of this proportion compared to vehicle treated control.
Cell TE WB: USP30 endogenous cellular target engagement western blot (WB) assay. Assays the activity of compounds against USP30 in cells using an irreversible activity probe to monitor USP30 activity.

pIC50 [1]: 7.54
DUB selectivity preference for USP30 v UCHL1 [2]: 10300
IC50 [2]: > 300 µM
IC50 ([3]; Ref. Ex. C excl. USP22, Ref. Ex. D excl. USP2, 46): ≥ 10.6 µM
IC50 [4]: 111 µM
IC50 [5]: 44.5 µM
IC50 [6]: 54.5 µM
IC50 [7]: 226 µM
IC50 [8]: 223 µM
IC50 ([9]; range over the five cathepsins): 44.5 to 226 µM
pEC50 [11]: 7.06
SMILES: COC[C@@H]1C[C@@H](NC(=O)c2nnc(-c3cc(C#N)ccc3OC)o2)CN1C#N [Example 4, 5-(5-Cyano-2-methoxyphenyl)-N-((3R,5S)-1-cyano-5-(methoxymethyl)pyrrolidine-3-yl)-1,3,4-oxadiazole-2-carboxamide]
DUB selectivity preference for USP30 v 9 DUBs [3]: 365-10300
Selectivity preference for USP30 v cathepsins ([9]; range over cathepsins B, K, L, S, V): 1500-7800
Cell Tox EC50/USP30 IC50 [10]: >1000
pEC50 ([10]; Homo sapiens, HCT-116, 96-hour continual compound exposure, alamarBlue): < 4.52

From patent publication US20220315572A1, “SUBSTITUTED CYANOPYRROLIDINES WITH ACTIVITY AS USP30 INHIBITORS” (MISSION THERAPEUTICS LIMITED, priority 2019, published 2022)
